The values that follow come from patent US20250354192A1, “METHODS FOR QUANTIFYING LIVE BACTERIA” (priority 2022, published 2025).

One experiment concerns E. coli (ATCC 35421). As to conditions: 5 or 10 minutes with ethanol; cells grown in the presence of EDA. How it is done:
(§1) Experimental Detail: A single colony of each indicated bacteria was inoculated into BHI and incubated overnight at 37° C. On the next day, the cells were diluted into fresh BHI and incubated for 2 h at 37° C. followed by an additional 90-minute incubation in the presence or absence of 1 mM EDA, where indicated. Where indicated, an aliquot of each culture was mixed with 96% ethanol to a final concentration of 70% (A, B) or 25% (C) and incubated for 5 to 10 min at room temperature. Cultures not exposed to ethanol were incubated for an equal amount of time in 1×PBS. Cells were pelleted by centrifugation for 10 min at 10,000 g, and supernatant containing excess EDA and ethanol was discarded. Cells were then resuspended in 300 μL of 1×PBS and pelleted again by centrifugation (10 min at 10,000 g). The 3rd step was carried out by resuspending cell pellets in 0.25 mL of 1×PBS solution containing 200 μM copper sulfate (II) (MilliporeSigma, Burlington, MA), 128 μM THPTA ligand (Lumiprobe, Hunt Valley, MD), 2.5 mM Ascorbic acid (MilliporeSigma, Burlington, MA), 25 μM CF488 picolyl azide fluorescent dye (Biotium, Fremont, CA), and 5% DMSO (Thermo Fisher Scientific, Waltham, MA). After a 30-minute incubation at room temperature, 500 μL of 1×PBS was added to each reaction, and cells were harvested by centrifugation (10 min at 10,000 g). Supernatant containing excess dye and reaction components was discarded, cells were washed with 500 μL of 1×PBS, and the cells were pelleted again by centrifugation. Finally, each cell pellet was resuspended in 0.3 mL of 1×PBS and mixed with an equal volume of ferrofluid. All samples were run on PIPER, and cell counts were generated by image analysis using an automated bacterial image recognition algorithm.

The test system of experiment [1] is Salmonella enterica (ATCC 12023), Klebsiella pneumoniae (ATCC 13882), Citrobacter freundii (ATCC 8090), and E. coli (ATCC 35421). As to conditions: ethanol 25%, N=3. How it is done: as §1
Another experiment has as its system B. cereus (ATCC 33019). The following applies: ethanol 70%, 5 to 10 min at room temperature. Here is the method: as §1
Experiment [2] concerns gram-positive and gram-negative bacteria. Put plainly: Labeling of gram-positive and gram-negative bacteria with NADA-Green, PIPER non-capture assay. The following applies: 1 mM, 90 minutes. The experiment is classed as cell-based, five (5) different strains of log phase bacteria. Here is the method: FIG. 4 depicts the labeling of gram-positive and gram-negative bacteria with NADA-Green with the five (5) different strains of log phase bacteria (see FIGS. 2A-E) growing at 37° C. in BHI media, and then incubated with 1 mM NADA-Green (Bio-Techne, Minneapolis, MN) for 90 minutes. Cells were pelleted by centrifugation (10 min 10,000 g) to remove the excess dye, resuspended in 1×PBS, mixed with ferrofluid, and processed on PIPER in a non-capture assay.

For experiment [3], the system named is eight (8) different strains of log phase bacteria. Put plainly: Quantification of cells labeled with NADA-Green in eight strains, PIPER image recognition algorithm. As to conditions: 1 mM, 60 minutes. The experiment is classed as cell-based. An excerpt: FIG. 5A depicts the quantification of cells labeled with NADA-Green in eight (8) different strains of log phase bacteria. FIG. 5B depicts the quantification of cell labelling efficiency by NADA-Green in eight (8) different strains of log phase bacteria (SE—Salmonella enterica; EC—Escherichia coli; KP—Klebsiella pneumoniae; CF—Citrobacter freundii; SA—Staphylococcus aureus; BC—Bacillus cereus; LM—Listeria monocytogenes; PA—Pseudomonas aeruginosa), determined as a percentage of NADA-labelled PIPER cell counts to the SYBR-labelled PIPER cell counts. Cells growing at 37° C. in BHI media were incubated with 1 mM NADA-Green (Bio-Techne, Minneapolis, MN) for 60 minutes. Cells were pelleted by centrifugation (10 min 10,000 g) to remove the excess dye, resuspended in 1×PBS, mixed with ferrofluid, and processed on PIPER in a non-capture assay. An automated bacterial image recognition algorithm determined labeled cell counts.

For experiment [4], the system named is Salmonella Typhimurium, Staphylococcus aureus, or a mixture of the two strains. Put plainly: Labeling of a mixed culture with NADA-Green, PIPER non-capture assay. It counts as cell-based. As to conditions: 1 mM, 60 minutes, 37° C. How it is done:
Even with efficient uptake of the D-amino acid analog, gram-negative bacteria may not stain as brightly as gram-positive bacteria because gram-negative bacteria have a much thinner peptidoglycan layer. […] For example, FIGS. 12A-B depict labeling of a mixed culture with NADA-Green. A log phase culture of Salmonella Typhimurium, Staphylococcus aureus, or a mixture of the two strains was incubated at 37° C. with 1 mM NADA-Green Bio-Techne, Minneapolis, MN) for 60 minutes. Cells were pelleted by centrifugation (10 min 10,000 g) to remove the excess dye, resuspended in 1×PBS, mixed with ferrofluid, and processed on PIPER in a non-capture assay. […] Salmonella cells appear smaller and dimmer in the image than Staph. aureus cells.

For the next experiment, the system named is Salmonella Typhimuirum. Put plainly: Time course of labeling with NADA-Green, PIPER cartridge coated with Salmonella-specific antibody. As to conditions: 1 mM, 30 minutes or 90 minutes, 37° C. in BHI. The experiment is classed as cell-based. How it is done:
Cells were pelleted by centrifugation (10 min 10,000 g) to remove the excess dye, resuspended in 1×PBS, mixed with ferrofluid, and processed on PIPER using a cartridge having areas coated with a Salmonella-specific antibody.

Experiment [5] relates to Bacillus, Enterococcus, Listeria, Salmonella, and Klebsiella. Put plainly: NADA-Green labeling of live versus heat-killed bacteria, PIPER non-capture assay. The experiment is classed as cell-based. As to conditions: 1 mM, 60 minutes; live log phase or heat-killed 15 minutes at 70° C. How it is done: Accordingly, as shown in FIG. 2A-E, NADA-Green labels live bacteria and illustrates five (5) different strains (Bacillus, Enterococcus, Listeria, Salmonella, and Klebsiella) of log phase bacteria growing at 37° C. in brain heart infusion (BHI) media or heat-killed for 15 minutes at 70° C. were incubated with or without the fluorescent D-amino acid, NADA-Green at 1 mM (Bio-Techne, Minneapolis, MN) for 60 minutes. Cells were pelleted to remove the excess dye and resuspended in 1X phosphate buffered saline (PBS). Each sample was then split into two tubes. To one of the tubes, SYBR Green (ThermoFisher Scientific, Waltham, Massachusetts) was added in 1:100 dilution. All samples were processed on Ancera Inc.'s PIPER™ platform (“PIPER”) in a non-capture assay and analyzed by a bacterial image recognition algorithm to determine labeled cell counts. […] SYBR labeling confirmed that the dead cells remained intact on the instrument.

A further experiment has as its system E. coli. Put plainly: Cell doubling control with DL-serine hydroxamate, OD600 and EDA click labeling on PIPER. It counts as cell-based. Here is the method: E. coli was grown overnight at 37° C. The next day, cells were diluted into fresh media and grown for 2 hours. Next, +/−DL-serine hydroxamate (SHX; 1 mg/ml) and EDA (1 mM) were added. OD600 was taken every 20 min for 90 min. Aliquots of cells at the last time point were pelleted by centrifugation (10 min 10,000 g), and supernatant was discarded. Bacteria were washed with 1 mL of 1× PBS, pelleted by centrifugation (10 min 10,000 g), and supernatant was discarded. Cell pellets were resuspended in click reaction solution containing 200 μM copper sulfate (II) (MilliporeSigma, Burlington, MA), 128 μM THPTA ligand (Lumiprobe, Hunt Valley, MD), 2.5 mM Ascorbic acid (MilliporeSigma, Burlington, MA), 25 μM CF488 picolyl azide fluorescent dye (Biotium, Fremont, CA) and incubated for 30 min at room temperature. Cells were pelleted by centrifugation (10 min 10,000 g), supernatant was discarded, and pellets were resuspended 1 mL of 1× PBS. Finally, pellets were resuspended in PBS, mixed with ferrofluid and processed in the non-capture assay on PIPER. An automated bacterial image recognition algorithm determined labeled cell counts.

Experiment [6] concerns Klebsiella pneumoniae (KP). Put plainly: APC petrifilm counts before and after 90 minutes incubation with or without chloramphenicol. The experiment is classed as cell-based. As to conditions: 5 μg/mL, 37° C. for 90 minutes. Here is the method:
(§2) Eight (8) different species of bacteria (Salmonella enterica, E. coli, Klebsiella pneumoniae, Citrobacter freundii, Staphylococcus aureus, Bacillus cereus, Listeria monocytogenes and Pseudomonas aeruginosa) were propagated from frozen stocks onto TSA plates and incubated at 37° C. for 24 hours. To induce cold-stress, a loopful of cells from each plate was transferred into 3 mL of Butterfield's Phosphate Buffer, vortexed to suspend the cells, and placed at 4° C. for 1 day. The following day, cells from each culture were pelleted for 10 minutes at 10,000 g and resuspended in BHI (FIG. 19A) or BHI containing 5 μg/mL of chloramphenicol (FIG. 19B). Each culture was normalized to an absorbance value at 600 nm (OD600) of 0.05 and loaded in triplicate onto a sterile microplate at 0.2 mL per well. The microplate was covered with BreatheEasy film and bacterial growth was monitored using a SpectroStar Nano spectrophotometer (BMG Labtech, Cary, NC) for 24 hours. During growth, the temperature was maintained at 37° C. and the plate was automatically shaken prior to OD600 readings every 10 minutes. […] A cold-stressed Klebsiella pneumoniae (KP) culture prepared as described above was transferred into BHI or BHI containing 5 μg/mL of chloramphenicol and either plated immediately or placed at 37° C. for 90 minutes. […]

In experiment [7] the test system is Eight (8) different species of bacteria. Put plainly: Bacterial growth (OD600) of cold-stressed cultures in BHI with or without chloramphenicol. The experiment is classed as cell-based. As to conditions: 5 μg/mL in BHI, 37° C., 2-hour observation window. Here is the method:
Eight (8) different species of bacteria (Salmonella enterica, E. coli, Klebsiella pneumoniae, Citrobacter freundii, Staphylococcus aureus, Bacillus cereus, Listeria monocytogenes and Pseudomonas aeruginosa) were propagated from frozen stocks onto TSA plates and incubated at 37° C. for 24 hours. To induce cold-stress, a loopful of cells from each plate was transferred into 3 mL of Butterfield's Phosphate Buffer, vortexed to suspend the cells, and placed at 4° C. for 1 day. The following day, cells from each culture were pelleted for 10 minutes at 10,000 g and resuspended in BHI (FIG. 19A) or BHI containing 5 μg/mL of chloramphenicol (FIG. 19B). Each culture was normalized to an absorbance value at 600 nm (OD600) of 0.05 and loaded in triplicate onto a sterile microplate at 0.2 mL per well. The microplate was covered with BreatheEasy film and bacterial growth was monitored using a SpectroStar Nano spectrophotometer (BMG Labtech, Cary, NC) for 24 hours. During growth, the temperature was maintained at 37° C. and the plate was automatically shaken prior to OD600 readings every 10 minutes. […] OD600 observations were validated using the “gold-standard” petrifilm counts (3M) (FIG. 19C). […]

The subject of experiment [8] is Klebsiella pneumoniae (KP). Put plainly: 3-step metabolic labeling with EDA with or without chloramphenicol, detection on PIPER. It counts as cell-based. As to conditions: 5 μg/mL, 1 mM EDA, 37° C. for 90 min. Here is the method: as §2

SMILES strings stand for the structures.

For the compound `CCO` [ethanol], the “detection after ethanol incubation prior to the click reaction” value in the experiment with E. coli (ATCC 35421) was “dramatically improved detection”. The “cell counts, cell mean intensity and variability across technical replicates” value in experiment [1] is “improved cell counts and/or cell mean intensity and reduced the variability across technical replicates”. Further, the “CuAAC labeling with or without ethanol treatment” value in the experiment on B. cereus (ATCC 33019) was “occurred efficiently both with or without ethanol treatment”.

For the compound `N[C@H](CNc1ccc([N+](=O)[O-])c2nonc12)C(=O)O` [NADA-Green], the labeling of bacteria result in experiment [2] is “labels both gram-positive and gram-negative bacteria”. In addition, the “detection of labeled strains by the image recognition algorithm” value in experiment [3] is on record as “All labeled strains except Pseudomonas were detected”. In addition, the “PIPER counts in mixed culture versus individual cultures” value in [4] is “counts in the mixed culture are approximately additive of the counts for each individual culture”. The “interference with cell growth or capture by the antibody” value in the experiment with Salmonella Typhimuirum is “does not interfere with cell growth or capture by the antibody”. Further, the “labeled cell counts above background noise, live versus heat-killed cells” value in [5] is on record as “Only live cells labeled with NADA-Green were counted above background noise”.

In the case of `NC(CO)C(=O)NO` (racemic) [DL-Serine hydroxamate, DL-serine hydroxamate], in the experiment on E. coli (1 mg/ml SHX, 1 mM EDA), the “labeling with EDA and click reaction in the presence of the agent” value is recorded as “does not prevent labeling”. Besides, in the experiment with E. coli (1 mg/ml, OD600 every 20 min for 90 min), the “doubling of fast-growing cells (OD600)” value is listed as “slows doubling of fast-growing cells”.

Turning to `O=C(N[C@H](CO)[C@H](O)c1ccc([N+](=O)[O-])cc1)C(Cl)Cl` [chloramphenicol], the “cell doubling by APC petrifilm counts” value in experiment [6] is given as “prevented cell doubling”. In addition, the “doubling (OD600)” value in [7] is “prevented doubling in all 8 strains”. Moreover, in [8], the “PIPER cell counts versus sample without chloramphenicol” value is “slight decrease in cell counts”; the “interference with 3-step metabolic labeling and detection on PIPER” value is “did not interfere with 3-step metabolic labeling and detection on PIPER”.
